# Measured values: article PMC10620772, “Design, synthesis, and biological evaluation of new pyrimidine-5-carbonitrile derivatives as novel anti-cancer, dual EGFR^WT/COX-2 inhibitors with docking studies” (RSC Advances, 2023)
# Assays:
# Experiment in all cases: NCI60 antitumor screening
# Type in all cases: cell-based, human
# MDA-MB-468 = conditions: Homo sapiens; 10 μM single dose; MDA-MB-468 (breast cancer); read-out: growth inhibition percent (GI%)
# M14 = conditions: Homo sapiens; 10 μM single dose; M14 (melanoma); read-out: growth inhibition percent (GI%)
# HOP-92 = conditions: Homo sapiens; 10 μM single dose; HOP-92 (non-small cell lung cancer); read-out: growth inhibition percent (GI%)
# RPMI-8226 = conditions: Homo sapiens; 10 μM single dose; RPMI-8226 (leukaemia); read-out: growth inhibition percent (GI%)
# NCI-H522 = conditions: Homo sapiens; 10 μM single dose; NCI-H522 (non-small cell lung cancer); read-out: growth inhibition percent (GI%)
# T-47D = conditions: Homo sapiens, T47D; 10 μM single dose; T-47D (breast cancer); read-out: growth inhibition percent (GI%)
# CCRF-CEM = conditions: Homo sapiens; 10 μM single dose; CCRF-CEM (leukaemia); read-out: growth inhibition percent (GI%)
# SK-MEL-5 = conditions: Homo sapiens; 10 μM single dose; SK-MEL-5 (melanoma); read-out: growth inhibition percent (GI%)
# HL-60(TB) = conditions: Homo sapiens; 10 μM single dose; HL-60(TB) (leukaemia); read-out: growth inhibition percent (GI%)
# NCI-H23 = conditions: Homo sapiens; 10 μM single dose; NCI-H23 (non-small cell lung cancer); read-out: growth inhibition percent (GI%)
# DU-145 = conditions: Homo sapiens, DU-145; read-out: growth inhibition percent (GI%)
# UACC-62 = conditions: Homo sapiens; 10 μM single dose; UACC-62 (melanoma); read-out: growth inhibition percent (GI%)
# HT29 = conditions: Homo sapiens, HT-29; 10 μM single dose; HT29 (colon cancer); read-out: growth inhibition percent (GI%)
# K-562 = conditions: Homo sapiens; 10 μM single dose; (leukaemia); read-out: growth inhibition percent (GI%)
# RXF 393 = conditions: Homo sapiens; 10 μM single dose; RXF 393 (renal cancer); read-out: growth inhibition percent (GI%)
# A549/ATCC = conditions: Homo sapiens; 10 μM single dose; A549/ATCC (non-small cell lung cancer); read-out: growth inhibition percent (GI%)
# HCT-116 = conditions: Homo sapiens; 10 μM single dose; HCT-116 (colon cancer); read-out: growth inhibition percent (GI%)
# 786–0 = conditions: Homo sapiens; 10 μM single dose; 786–0 (renal cancer); read-out: growth inhibition percent (GI%)
# SW-620 = conditions: Homo sapiens; 10 μM single dose; SW-620 (colon cancer); read-out: growth inhibition percent (GI%)
# OVCAR-8 = conditions: Homo sapiens; 10 μM single dose; OVCAR-8 (ovarian cancer); read-out: growth inhibition percent (GI%)
# NCI-H226 = conditions: Homo sapiens; 10 μM single dose; NCI-H226 (non-small cell lung cancer); read-out: growth inhibition percent (GI%)
# PC-3 = conditions: Homo sapiens; 10 μM single dose; PC-3 (prostate cancer); read-out: growth inhibition percent (GI%)
# SN12C = conditions: Homo sapiens; 10 μM single dose; SN12C (renal cancer); read-out: growth inhibition percent (GI%)
# OVCAR-3 = conditions: Homo sapiens; 10 μM single dose; OVCAR-3 (ovarian cancer); read-out: growth inhibition percent (GI%)
# MALME-3M = conditions: Homo sapiens; 10 μM single dose; MALME-3M (melanoma); read-out: growth inhibition percent (GI%)
# A498 = conditions: Homo sapiens; 10 μM single dose; A498 (renal cancer); read-out: growth inhibition percent (GI%)
# LOX IMVI = conditions: Homo sapiens; 10 μM single dose; LOX IMVI (melanoma); read-out: growth inhibition percent (GI%)
# SK-MEL-28 = conditions: Homo sapiens; 10 μM single dose; SK-MEL-28 (melanoma); read-out: growth inhibition percent (GI%)
# TK-10 = conditions: Homo sapiens; 10 μM single dose; TK-10 (renal cancer); read-out: growth inhibition percent (GI%)
# NCI-H322M = conditions: Homo sapiens; 10 μM single dose; NCI-H322M (non-small cell lung cancer); read-out: growth inhibition percent (GI%)
# CAKI-1 = conditions: Homo sapiens; 10 μM single dose; CAKI-1 (renal cancer); read-out: growth inhibition percent (GI%)
# IGROV1 = conditions: Homo sapiens, IGROV-1; 10 μM single dose; IGROV1 (ovarian cancer); read-out: growth inhibition percent (GI%)
# UACC-257 = conditions: Homo sapiens; 10 μM single dose; UACC-257 (melanoma); read-out: growth inhibition percent (GI%)
# HOP-62 = conditions: Homo sapiens; 10 μM single dose; HOP-62 (non-small cell lung cancer); read-out: growth inhibition percent (GI%)
# UO-31 = conditions: Homo sapiens; 10 μM single dose; UO-31 (renal cancer); read-out: growth inhibition percent (GI%)
# MDA-MB-435 = conditions: Homo sapiens; 10 μM single dose; MDA-MB-435 (melanoma); read-out: growth inhibition percent (GI%)
# HCT-15 = conditions: Homo sapiens; 10 μM single dose; HCT-15 (colon cancer); read-out: growth inhibition percent (GI%)
# SF-539 = conditions: Homo sapiens; 10 μM single dose; SF-539 (CNS cancer); read-out: growth inhibition percent (GI%)
Compound,inhibition at 10 µM (MDA-MB-468),inhibition at 10 µM (M14),inhibition at 10 µM (HOP-92),inhibition at 10 µM (RPMI-8226),inhibition at 10 µM (NCI-H522),inhibition at 10 µM (T-47D),inhibition at 10 µM (CCRF-CEM),inhibition at 10 µM (SK-MEL-5),inhibition at 10 µM (HL-60(TB)),inhibition at 10 µM (NCI-H23),inhibition at 10 µM (DU-145),inhibition at 10 µM (UACC-62),inhibition at 10 µM (HT29),inhibition at 10 µM (K-562),inhibition at 10 µM (RXF 393),inhibition at 10 µM (A549/ATCC),inhibition at 10 µM (HCT-116),inhibition at 10 µM (786–0),inhibition at 10 µM (SW-620),inhibition at 10 µM (OVCAR-8),other results
"Cc1ccc(CSc2nc(-c3ccc(F)cc3)c(C#N)c(N3CCNCC3)n2)cc1 [4h, 4-(4-Fluorophenyl)-2-((4-methylbenzyl)thio)-6-(piperazin-1-yl)pyrimidine-5-carbonitrile]",< 10%,< 10%,< 10%,< 10%,< 10%,< 10%,< 10%,< 10%,< 10%,< 10%,< 10%,< 10%,< 10%,< 10%,< 10%,< 10%,< 10%,< 10%,< 10%,< 10%,inhibition at 10 µM (NCI-H226): < 10%; inhibition at 10 µM (PC-3): < 10%; inhibition at 10 µM (SN12C): < 10%; inhibition at 10 µM (OVCAR-3): < 10%; inhibition at 10 µM (MALME-3M): < 10%; inhibition at 10 µM (A498): < 10%; inhibition at 10 µM (LOX IMVI): < 10%; inhibition at 10 µM (SK-MEL-28): < 10%; inhibition at 10 µM (TK-10): < 10%; inhibition at 10 µM (NCI-H322M): < 10%; inhibition at 10 µM (CAKI-1): 11.7%; inhibition at 10 µM (IGROV1): < 10%; inhibition at 10 µM (UACC-257): < 10%; inhibition at 10 µM (HOP-62): < 10%; inhibition at 10 µM (UO-31): 12.1%; inhibition at 10 µM (MDA-MB-435): < 10%; inhibition at 10 µM (HCT-15): < 10%; inhibition at 10 µM (SF-539): < 10%
"Cc1ccc(CSc2nc(-c3ccc(F)cc3)c(C#N)c(N3CCN(c4ccccc4)CC3)n2)cc1 [4p, 4-(4-Fluorophenyl)-2-((4-methylbenzyl)thio)-6-(4-phenylpiperazin-1-yl) pyrimidine-5-carbonitrile]",13.6%,11%,< 10%,18.4%,13.8%,12.3%,< 10%,13.7%,< 10%,< 10%,< 10%,29.7%,< 10%,18%,< 10%,11.6%,15.1%,< 10%,< 10%,< 10%,inhibition at 10 µM (NCI-H226): < 10%; inhibition at 10 µM (PC-3): 25.1%; inhibition at 10 µM (SN12C): < 10%; inhibition at 10 µM (OVCAR-3): < 10%; inhibition at 10 µM (MALME-3M): < 10%; inhibition at 10 µM (A498): < 10%; inhibition at 10 µM (LOX IMVI): < 10%; inhibition at 10 µM (SK-MEL-28): < 10%; inhibition at 10 µM (TK-10): < 10%; inhibition at 10 µM (NCI-H322M): < 10%; inhibition at 10 µM (CAKI-1): 16.6%; inhibition at 10 µM (IGROV1): < 10%; inhibition at 10 µM (UACC-257): 14.1%; inhibition at 10 µM (HOP-62): < 10%; inhibition at 10 µM (UO-31): < 10%; inhibition at 10 µM (MDA-MB-435): 10.3%; inhibition at 10 µM (HCT-15): 13.9%; inhibition at 10 µM (SF-539): < 10%
"N#Cc1c(-c2ccc(F)cc2)nc(SCc2ccc([N+](=O)[O-])cc2)nc1N1CCN(c2ccccc2)CC1 [4o, 4-(4-Fluorophenyl)-2-((4-nitrobenzyl)thio)-6-(4-phenylpiperazin-1-yl)pyrimidine-5-carbonitrile]",10.9%,< 10%,< 10%,15.3%,< 10%,< 10%,< 10%,< 10%,< 10%,< 10%,< 10%,18.1%,< 10%,< 10%,< 10%,< 10%,< 10%,< 10%,< 10%,< 10%,inhibition at 10 µM (NCI-H226): < 10%; inhibition at 10 µM (PC-3): < 10%; inhibition at 10 µM (SN12C): < 10%; inhibition at 10 µM (OVCAR-3): < 10%; inhibition at 10 µM (MALME-3M): < 10%; inhibition at 10 µM (A498): < 10%; inhibition at 10 µM (LOX IMVI): < 10%; inhibition at 10 µM (SK-MEL-28): < 10%; inhibition at 10 µM (TK-10): < 10%; inhibition at 10 µM (NCI-H322M): < 10%; inhibition at 10 µM (CAKI-1): 13.7%; inhibition at 10 µM (IGROV1): < 10%; inhibition at 10 µM (UACC-257): < 10%; inhibition at 10 µM (HOP-62): < 10%; inhibition at 10 µM (UO-31): < 10%; inhibition at 10 µM (MDA-MB-435): < 10%; inhibition at 10 µM (HCT-15): < 10%; inhibition at 10 µM (SF-539): < 10%
